ChEMBL document CHEMBL5107993, “Design, synthesis and in vitro biological evaluation of marine phidianidine derivatives as potential anti-inflammatory agents” (Bioorg Med Chem, 2022)
pIC50: −log10 of the molar value. Active and inactive are the calls of the source. The rule behind the calls is not given here.

Tests used:
[1] = Inhibition of IL-17A production in PMA/ionomycin-stimulated mouse EL4 cells at 10 uM measured by ELISA relative to control; assay type: functional
EL4 [2] = assay: Inhibition of IL-17A production in PMA/ionomycin-stimulated mouse EL4 cells at 2 to 10 uM measured by ELISA; assay type: functional, cell-based; settings: dose 2-10 µM, DDE = dose-dependent effect
EL4 [3] = assay: Inhibition of IL-17F mRNA expression in PMA/ionomycin-stimulated mouse EL4 cells at 10 uM measured by qRT-PCR method; assay type: functional, cell-based
Th17 [4] = assay: Inhibition of human Th17 cells differentiation in CD4+ve T cells assessed as decrease in IL-17A production at 2 uM measured by ELISA; assay type: functional, cell-based
EL4 [5] = assay: Inhibition of IL-17A production in PMA/ionomycin-stimulated mouse EL4 cells at 2 to 10 uM measured […]; assay type: functional, cell-based; settings: dose 2-10 µM, DDE = dose-dependent effect
EL4 [6] = assay: Inhibition of IL-17A mRNA expression in PMA/ionomycin-stimulated mouse EL4 cells at 10 uM measured by qRT-PCR method; assay type: functional, cell-based
Th17 [7] = assay: Inhibition of human Th17 cells differentiation in CD4+ve T cells assessed as decrease in IL-17A mRNA expression at 2 uM measured by qRT-PCR method; assay type: functional, cell-based
EL4 [8] = assay: Downregulation ofp-STAT3 (Y705) expression in PMA/ionomycin-stimulated mouse EL4 cells measured by western blot analysis; assay type: functional, cell-based
[9] = Inhibition of IL-17A production in PMA/ionomycin-stimulated mouse EL4 cells measured by ELISA; assay type: functional, cell-based
[10] = Inhibition of IL-17A production in PMA/ionomycin-stimulated mouse EL4 cells at 20 uM measured by ELISA relative to control; assay type: functional

For `NC12CCC(c3nc(Cc4c[nH]c5ccccc45)no3)(CC1)C2`, which inhibition at 10 µM [1] is on record?
The inhibition at 10 µM was 3%.

With `CN(C)CCNc1ccc(-c2noc(C34CC5CC(CC(C5)C3)C4)n2)cc1` as the compound, how does the inhibition at 10 µM [1] read?
Its inhibition at 10 µM is 39.6%.

For `CN(C)CCNCc1nc(Cc2c[nH]c3ccccc23)no1`, which inhibition at 10 µM [1] is on record?
Its inhibition at 10 µM is 6.1%.

With `N=C(N)NCCNc1ccc(-c2noc(Cc3c[nH]c4ccccc34)n2)cc1` as the compound, how does the inhibition at 10 µM [1] read?
Its inhibition at 10 µM is 15.2%.

With `c1ccc2c(Cc3noc(CNC4CCC4)n3)c[nH]c2c1` as the compound, how does the inhibition at 10 µM [1] read?
Its inhibition at 10 µM is 5.8%.

With `CC(=O)NCCNc1ccc(-c2noc(Cc3c[nH]c4ccccc34)n2)cc1` as the compound, how does the inhibition at 10 µM [1] read?
The inhibition at 10 µM was 31%.

For `NCCNc1ccc(-c2noc(Cc3c[nH]c4ccccc34)n2)cc1`, which inhibition at 10 µM [1] is on record?
Its inhibition at 10 µM is 21.5%.

What does the source list for `CN(C)CCNc1ccc(-c2noc(Cc3c[nH]c4ccccc34)n2)cc1`?
inhibition (EL4 [2]): Dde; inhibition (EL4 [3]): Active; inhibition at 10 µM [1]: 78.7%; inhibition (Th17 [4]): Active; inhibition (EL4 [5]): Dde; inhibition (EL4 [6]): Active; inhibition (Th17 [7]): Active; Activity (EL4 [8]): Active; pIC50 [9]: 5.11

For `CS(=O)(=O)c1ccc(CNc2ccc(-c3noc(Cc4c[nH]c5ccccc45)n3)cc2)cc1`, which inhibition at 10 µM [1] is on record?
The inhibition at 10 µM was 10.3%.

For `CS(=O)(=O)c1ccc(CNC23CCC(c4nc(Cc5c[nH]c6ccccc56)no4)(CC2)C3)cc1`, which inhibition at 10 µM [1] is on record?
The inhibition at 10 µM was 8.1%.

For `CN(C)CCNc1ccc(-c2noc(-c3ccccc3)n2)cc1`, which inhibition at 20 µM [10] is on record?
The inhibition at 20 µM was 22.9%.

For `Nc1ccc(-c2noc(Cc3c[nH]c4ccccc34)n2)cc1`, which inhibition at 10 µM [1] is on record?
The inhibition at 10 µM was 6.4%.

Which results are given for `COc1cc(-c2nc(-c3ccc(NCCN(C)C)cc3)no2)cc(OC)c1OC`?
inhibition (EL4 [2]): Dde; inhibition (EL4 [3]): Active; inhibition at 10 µM [1]: 83.5%; inhibition (EL4 [5]): Dde; inhibition (EL4 [6]): Active; pIC50 [9]: 5.28

For `O=S(=O)(c1ccccc1)N(CC(F)(F)F)c1ccc(C(O)(C(F)(F)F)C(F)(F)F)cc1` [T091317], which inhibition at 20 µM [10] is on record?
The inhibition at 20 µM was 52.7%.
